Experimental data taken from paper PMC9653173, “Trotabresib (CC-90010) in combination with adjuvant temozolomide or concomitant temozolomide plus radiotherapy in patients with newly diagnosed glioblastoma” (Neuro-Oncology Advances, 2022).
Several values for one entry are separate records, joined by “and”; a condition that tells them apart may be missing. Equal entries are not always repeated. Where two headings read alike, the source gives them in different places.

System: patients with newly diagnosed glioblastoma
Text: The phase Ib, dose-escalation part of this study explored escalating oral doses of trotabresib in combination with TMZ in the adjuvant setting and with TMZ plus RT in the concomitant setting. […] Dose-escalation decisions were made by the safety review committee, based on all available safety, pharmacokinetics, pharmacodynamics, and preliminary efficacy information, and a calculation of risk assessment using a Bayesian logistic regression model.
The primary endpoints of the study were to determine the safety and tolerability, maximum tolerated dose, and/or recommended phase II dose (RP2D) of trotabresib in combination with TMZ as adjuvant therapy, and with TMZ and RT as concomitant therapy. […] Trotabresib pharmacodynamics was an exploratory endpoint.
Adverse events (AEs) were classified using the Medical Dictionary for Regulatory Activities v18.1 or higher system organ class and preferred term. Severity of AEs was graded based on the patient’s symptoms according to the National Cancer Institute Common Terminology Criteria for Adverse Events v5.0.[35] Dose-limiting toxicities (DLTs) were defined as any of the toxicities described in Supplementary Table S2 occurring within the DLT assessment period (cycle 1 [28 days]), unless the event could clearly be determined to be unrelated to trotabresib. Screening MRI scans were performed after surgical resection and within 28 days (+3 days) prior to initiation of study treatment. Subsequent tumor assessments by MRI or CT were performed at week 10 during the concomitant treatment period and at the end of every other treatment cycle from cycle 2 onwards during the adjuvant and trotabresib monotherapy treatment periods. Best overall response (BOR) was evaluated as complete response (CR), partial response (PR), SD, progressive disease (PD), or not evaluable, according to Response Assessment in Neuro-Oncology criteria for high-grade glioma.[36] Plasma samples were collected during the first treatment cycle for investigation of trotabresib pharmacokinetics and pharmacodynamics. Plasma pharmacokinetic parameters assessed included peak plasma concentration (Cmax), time to peak plasma concentration (tmax), area under the plasma concentration–time curve (AUC), and terminal half-life (t½). Pharmacodynamic markers assessed included blood levels of CCR1 and HEXIM1 mRNA, which are established markers of BET inhibitor target engagement.[17],[22],[37],[38]

[1] = adjuvant overall (N = 18), related to labelled drug(s)
[2] = concomitant overall (N = 14), related to labelled drug(s)

Question: How did the “Thrombocytopenia TRAE, any grade” value [1] turn out when `Cn1cc(-c2cc(S(C)(=O)=O)ccc2OCC2CC2)c2ccccc2c1=O` [Trotabresib] was run?
Answer: 10 (56%) n (%) and 10 (56) n (%)

Question: What about the “Thrombocytopenia TRAE, grade 3/4” value [1] of the same compound?
Answer: 7 (39%) n (%) and 7 (39) n (%)

Question: What about the “Vomiting TRAE, any grade” value [1] of the same compound?
Answer: 4 (22) n (%)

Question: What about the “Vomiting TRAE, grade 3/4” value [1] of the same compound?
Answer: 0 n (%)

Question: And the “Serious intracranial hemorrhage, attributed to trotabresib” value (adjuvant, trotabresib 30 mg)?
Answer: 1 patient

Question: What about the “Serious diarrhea, attributed to trotabresib” value (adjuvant, trotabresib 45 mg) of the same compound?
Answer: 1 patient

Question: And the Treatment-related deaths (both cohorts)?
Answer: no treatment-related deaths

Question: What about the “Rash and other skin-related TRAEs attributed to trotabresib only” value (concomitant overall) of the same compound?
Answer: 4 (29%) n (%)

Question: And the “ALT increased TRAE, any grade” value [2]?
Answer: 1 (7) n (%)

Question: What about the “ALT increased TRAE, grade 3/4” value [2] of the same compound?
Answer: 1 (7) n (%)

Question: What about the “AST increased TRAE, any grade” value [2] of the same compound?
Answer: 1 (7) n (%)

Question: And the “AST increased TRAE, grade 3/4” value [2]?
Answer: 0 n (%)

Question: What about the “Acneiform dermatitis TRAE, any grade” value [2] of the same compound?
Answer: 3 (21) n (%)

Question: What about the “Acneiform dermatitis TRAE, grade 3/4” value [2] of the same compound?
Answer: 0 n (%)

Question: And the “Anemia TRAE, any grade” value [2]?
Answer: 3 (21) n (%)

Question: What about the “Anemia TRAE, grade 3/4” value [2] of the same compound?
Answer: 2 (14) n (%)

Question: What about the “Any TRAE, any grade” value [2] of the same compound?
Answer: 14 (100) n (%)

Question: What about the “Any TRAE, grade 3/4” value [2] of the same compound?
Answer: 7 (50) n (%)

Question: And the “Asthenia TRAE, any grade” value [2]?
Answer: 3 (21) n (%)

Question: What about the “Asthenia TRAE, grade 3/4” value [2] of the same compound?
Answer: 0 n (%)

Question: And the “Blood bilirubin increased TRAE, any grade” value [2]?
Answer: 2 (14) n (%)

Question: What about the “Blood bilirubin increased TRAE, grade 3/4” value [2] of the same compound?
Answer: 0 n (%)

Question: What about the “Decreased appetite TRAE, any grade” value [2] of the same compound?
Answer: 3 (21) n (%)

Question: What about the “Decreased appetite TRAE, grade 3/4” value [2] of the same compound?
Answer: 0 n (%)

Question: And the “Diarrhea TRAE, any grade” value [2]?
Answer: 2 (14) n (%)

Question: And the “Diarrhea TRAE, grade 3/4” value [2]?
Answer: 1 (7) n (%)

Question: What about the “Dysgeusia TRAE, any grade” value [2] of the same compound?
Answer: 5 (36) n (%)

Question: What about the “Dysgeusia TRAE, grade 3/4” value [2] of the same compound?
Answer: 0 n (%)

Question: And the “Dyspepsia TRAE, any grade” value [2]?
Answer: 2 (14) n (%)

Question: What about the “Dyspepsia TRAE, grade 3/4” value [2] of the same compound?
Answer: 0 n (%)

Question: And the “Fatigue TRAE, any grade” value [2]?
Answer: 5 (36) n (%)

Question: What about the “Fatigue TRAE, grade 3/4” value [2] of the same compound?
Answer: 1 (7) n (%)

Question: And the “Hyperbilirubinemia TRAE, any grade” value [2]?
Answer: 2 (14) n (%)

Question: What about the “Hyperbilirubinemia TRAE, grade 3/4” value [2] of the same compound?
Answer: 0 n (%)

Question: What about the “Hyperglycemia TRAE, any grade” value [2] of the same compound?
Answer: 1 (7) n (%)

Question: What about the “Hyperglycemia TRAE, grade 3/4” value [2] of the same compound?
Answer: 0 n (%)

Question: And the “Hypophosphatemia TRAE, any grade” value [2]?
Answer: 1 (7) n (%)

Question: And the “Hypophosphatemia TRAE, grade 3/4” value [2]?
Answer: 0 n (%)

Question: And the “Hypotension TRAE, any grade” value [2]?
Answer: 0 n (%)

Question: What about the “Hypotension TRAE, grade 3/4” value [2] of the same compound?
Answer: 0 n (%)

Question: What about the “Insomnia TRAE, any grade” value [2] of the same compound?
Answer: 0 n (%)

Question: And the “Insomnia TRAE, grade 3/4” value [2]?
Answer: 0 n (%)

Question: What about the “Intracranial hemorrhage TRAE, any grade” value [2] of the same compound?
Answer: 0 n (%)

Question: What about the “Intracranial hemorrhage TRAE, grade 3/4” value [2] of the same compound?
Answer: 0 n (%)

Question: What about the “Leukopenia TRAE, any grade” value [2] of the same compound?
Answer: 0 n (%)

Question: And the “Leukopenia TRAE, grade 3/4” value [2]?
Answer: 0 n (%)

Question: And the “Lymphopenia TRAE, any grade” value [2]?
Answer: 2 (14) n (%)

Question: And the “Lymphopenia TRAE, grade 3/4” value [2]?
Answer: 0 n (%)

Question: And the “Nausea TRAE, any grade” value [2]?
Answer: 8 (57%) n (%) and 8 (57) n (%)

Question: What about the “Nausea TRAE, grade 3/4” value [2] of the same compound?
Answer: 0 n (%)

Question: And the “Neutropenia TRAE, any grade” value [2]?
Answer: 6 (43) n (%)

Question: What about the “Neutropenia TRAE, grade 3/4” value [2] of the same compound?
Answer: 4 (29) n (%)

Question: And the “Pruritus TRAE, any grade” value [2]?
Answer: 0 n (%)

Question: What about the “Pruritus TRAE, grade 3/4” value [2] of the same compound?
Answer: 0 n (%)

Question: What about the “Rash TRAE, any grade” value [2] of the same compound?
Answer: 1 (7) n (%)

Question: And the “Rash TRAE, grade 3/4” value [2]?
Answer: 0 n (%)

Question: What about the “Seizure TRAE, any grade” value [2] of the same compound?
Answer: 2 (14) n (%)

Question: What about the “Seizure TRAE, grade 3/4” value [2] of the same compound?
Answer: 0 n (%)

Question: And the “Thrombocytopenia TRAE, any grade” value [2]?
Answer: 9 (64%) n (%) and 9 (64) n (%)

Question: What about the “Thrombocytopenia TRAE, grade 3/4” value [2] of the same compound?
Answer: 6 (43%) n (%) and 6 (43) n (%)

Question: What about the “Vomiting TRAE, any grade” value [2] of the same compound?
Answer: 5 (36) n (%)

Question: What about the “Vomiting TRAE, grade 3/4” value [2] of the same compound?
Answer: 0 n (%)

Question: And the Platelet nadir (trotabresib 30 mg 4 days on/24 days off)?
Answer: > 100,000 /mm^3
